Converted amounts (≈) assume the structure as drawn. Like-named read-outs stand apart in the source and are kept apart here.
Columns and labels:
E. coli PBP3 = E. coli PBP3 (Escherichia coli (strain K12), UniProt P0AD68); assay: E. coli PBP3 Bocillin-FL fluorescence polarization competition binding assay
How it was run: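 This was a fluorescence polarization competition with fluorescent penicillin Bocillin-FL (0.1 μM final), read at 490/520 nm for 60 min immediately after its addition. The buffer was Hepes pH 8.0 with 300 mM NaCl and 5% glycerol, containing 1.5 μM PBP and test inhibitor up to 1000 μM. Potency is expressed as EC50 for reducing probe binding.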

E. coli ATCC 25922 = assay: Broth microdilution MIC, E. coli ATCC 25922; format: cell-based; conditions: Escherichia coli
How it was run: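 CLSI broth microdilution in cation-supplemented Mueller-Hinton broth; 2-fold compound dilutions inoculated at 5×10^5 CFU/mL from a 3-5 h log-phase culture. Plates incubated 16-20 hours at 37° C; MIC read visually as lowest concentration with no growth.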

E. coli AG100 = assay: Broth microdilution MIC, E. coli AG100 (wild-type parent); format: cell-based; conditions: Escherichia coli; wild-type parent E. coli AG100, broth microdilution; read-out: MIC E. coli AG100
How it was run: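 Starting inoculum of 5×10^5 CFU/mL, from colonies grown 3-5 h in Mueller-Hinton broth with divalent cations, added to two-fold compound dilution series.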

[1] = test system: N. gonorrhoeae ATCC 49226; assay: Liquid broth MIC, N. gonorrhoeae ATCC 49226; format: cell-based; conditions: Neisseria gonorrhoeae, ATCC49226; N. gonorrhoeae ATCC 49226, liquid broth; read-out: Minimum Inhibitory Concentration, N. gonorrhoeae ATCC 49226
How it was run: (§1)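 MIC taken by eye as the lowest well lacking growth after 40-42 h at 36° C under 5% CO2. Compounds were 2-fold serially diluted; the starting inoculum of 5×10^5 CFU/mL came from direct colony suspensions grown on Kellogg's-supplemented GC agar.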

N. gonorrhoeae FA1090 = assay: Liquid broth MIC, N. gonorrhoeae FA1090; format: cell-based; conditions: Neisseria gonorrhoeae; N. gonorrhoeae FA1090, liquid broth; read-out: Minimum Inhibitory Concentration, N. gonorrhoeae FA1090
How it was run: as §1

N. gonorrhoeae FA19 = assay: Liquid broth MIC, N. gonorrhoeae FA19; format: cell-based; conditions: Neisseria gonorrhoeae; N. gonorrhoeae FA19, liquid broth; read-out: Minimum Inhibitory Concentration, N. gonorrhoeae FA19
How it was run: as §1

[2] = fluorescence polarization competition binding with Bocillin-FL, read-out: E. coli K12 PBP3 Potency
[3] = ATCC25922, E. coli ATCC 25922, broth microdilution, read-out: MIC E. coli 25922

E. coli PBP3, sequence (P0AD68 whole entry): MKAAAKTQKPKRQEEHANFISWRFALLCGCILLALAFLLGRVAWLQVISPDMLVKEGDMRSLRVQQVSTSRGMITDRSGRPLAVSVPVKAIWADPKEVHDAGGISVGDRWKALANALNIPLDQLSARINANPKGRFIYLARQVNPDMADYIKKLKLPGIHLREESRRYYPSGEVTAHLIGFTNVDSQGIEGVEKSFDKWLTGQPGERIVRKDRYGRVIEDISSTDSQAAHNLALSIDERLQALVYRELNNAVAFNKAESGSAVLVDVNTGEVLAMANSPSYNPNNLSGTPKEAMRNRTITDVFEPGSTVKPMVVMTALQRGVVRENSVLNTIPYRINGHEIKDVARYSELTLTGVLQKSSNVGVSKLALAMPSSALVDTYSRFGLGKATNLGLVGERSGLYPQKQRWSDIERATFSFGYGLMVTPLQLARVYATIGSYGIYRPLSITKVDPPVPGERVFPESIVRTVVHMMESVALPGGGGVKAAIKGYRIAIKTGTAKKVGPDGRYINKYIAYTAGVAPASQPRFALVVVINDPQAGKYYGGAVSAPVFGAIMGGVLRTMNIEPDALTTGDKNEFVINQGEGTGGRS

Structure (SMILES) | EC50 (E. coli PBP3; [2]) | MIC (E. coli ATCC 25922; [3]) | MIC (E. coli AG100) | MIC [1] | MIC (N. gonorrhoeae FA1090) | MIC (N. gonorrhoeae FA19) | EC50 (E. coli PBP3) | MIC (E. coli ATCC 25922; ATCC25922, read-out: MIC E. coli 25922)
CCN1CCN(C(=O)N[C@@H](C(=O)N[C@H]2Cc3cccc(C(=O)O)c3OB2O)c2ncc(O)cc2F)C(=O)C1=O [Example 177, (R)-3-((R)-2-(4-ethyl-2,3-dioxopiperazine-1-carboxamido)-2-(3-fluoro-5-hydroxypyridin-2-yl)acetamido)-2-hydroxy-3,4-dihydro-2H-benzo[e][1,2]oxaborinine-8-carboxylic acid] | < 30 µM | 8 to 16 µg/mL | 8 to 16 µg/mL | 4 to 8 µg/mL (≈ 7.36 to 14.7 µM) | < 0.125 µg/mL | 4 to 8 µg/mL (≈ 7.36 to 14.7 µM) | – | –
O=C(O)c1cccc2c1OB(O)[C@@H](NC(=O)C(NC(=O)N1CCN(CCF)C(=O)C1=O)c1ccc(B(O)O)cc1)C2 (stereo partly drawn) [Example 113, (3R)-3-(2-(4-boronophenyl)-2-(4-(2-fluoroethyl)-2,3-dioxopiperazine-1-carboxamido)acetamido)-2-hydroxy-3,4-dihydro-2H-benzo[e][1,2]oxaborinine-8-carboxylic acid] | – | 32 to 64 µg/mL | 32 to 64 µg/mL | 1 to 2 µg/mL (≈ 1.75 to 3.51 µM) | < 0.125 µg/mL | 1 to 2 µg/mL (≈ 1.75 to 3.51 µM) | 30 to 500 µM | –
CCN1CCN(C(=O)N[C@@H](C(=O)N[C@H]2Cc3ccc(F)c(C(=O)O)c3OB2O)c2ccc(O)c(O)c2Cl)C(=O)C1=O [Example 189, (R)-3-((R)-2-(2-chloro-3,4-dihydroxyphenyl)-2-(4-ethyl-2,3-dioxopiperazine-1-carboxamido)acetamido)-7-fluoro-2-hydroxy-3,4-dihydro-2H-benzo[e][1,2]oxaborinine-8-carboxylic acid] | < 30 µM | 2 to 4 µg/mL | 2 to 4 µg/mL | 1 to 2 µg/mL (≈ 1.69 to 3.37 µM) | 0.25 to 0.5 µg/mL (≈ 0.422 to 0.844 µM) | 1 to 2 µg/mL (≈ 1.69 to 3.37 µM) | – | –
CCN1CCN(C(=O)NC(C(=O)N[C@H]2Cc3cccc(C(=O)O)c3OB2O)c2cccc(N)n2)C(=O)C1=O (stereo partly drawn) [Example 104, (3R)-3-(2-(6-aminopyridin-2-yl)-2-(4-ethyl-2,3-dioxopiperazine-1-carboxamido)acetamido)-2-hydroxy-3,4-dihydro-2H-benzo[e][1,2]oxaborinine-8-carboxylic acid] | < 30 µM | 8 to 16 µg/mL | 32 to 64 µg/mL | – | – | – | – | –
CCN1CCN(C(=O)N[C@@H](C(=O)N[C@H]2Cc3ccc(F)c(C(=O)O)c3OB2O)[C@@H](C)O)C(=O)C1=O [Example 110, (R)-3-((2R,3R)-2-(4-ethyl-2,3-dioxopiperazine-1-carboxamido)-3-hydroxybutanamido)-7-fluoro-2-hydroxy-3,4-dihydro-2H-benzo[e][1,2]oxaborinine-8-carboxylic acid] | – | 8 to 16 µg/mL | 8 to 16 µg/mL | – | – | – | 30 to 500 µM | –
CCN1CCN(C(=O)NC(C(=O)N[C@H]2Cc3cccc(C(=O)[O-])c3OB2O)c2ccc[n+](CC(N)=O)c2)C(=O)C1=O (stereo partly drawn) [Example 107, (3R)-3-(2-(1-(2-amino-2-oxoethyl)pyridin-1-ium-3-yl)-2-(4-ethyl-2,3-dioxopiperazine-1-carboxamido)acetamido)-2-hydroxy-3,4-dihydro-2H-benzo[e][1,2]oxaborinine-8-carboxylate] | > 500 µM | 32 to 64 µg/mL | 32 to 64 µg/mL | – | – | – | – | –
CCN1C[C@H](CCN)N(C(=O)NC(C(=O)N[C@H]2Cc3ccc(F)c(C(=O)O)c3OB2O)c2ccc(O)c(O)c2Cl)C(=O)C1=O (stereo partly drawn) [Example 238, (3R)-3-(2-((S)-6-(2-aminoethyl)-4-ethyl-2,3-dioxopiperazine-1-carboxamido)-2-(2-chloro-3,4-dihydroxyphenyl)acetamido)-7-fluoro-2-hydroxy-3,4-dihydro-2H-benzo[e][1,2]oxaborinine-8-carboxylic acid] | – | 32 to 64 µg/mL | 2 to 4 µg/mL | > 64 µg/mL | 4 to 8 µg/mL (≈ 6.29 to 12.6 µM) | > 64 µg/mL | 30 to 500 µM | –
CCN1CCN(C(=O)NC(C(=O)N[C@H]2Cc3cccc(C(=O)O)c3OB2O)c2ccc(O)cc2)C(=O)C1=O (stereo partly drawn) [Example 27, (3R)-3-(2-(4-ethyl-2,3-dioxopiperazine-1-carboxamido)-2-(4-hydroxyphenyl)acetamido)-2-hydroxy-3,4-dihydro-2H-benzo[e][1,2]oxaborinine-8-carboxylic acid] | – | – | 32 to 64 µg/mL | – | – | – | 30 to 500 µM | 32 to 64 µg/mL
CCN1CCN(C(=O)NC(C(=O)N[C@H]2Cc3cccc(C(=O)O)c3OB2O)c2csc(N)n2)C(=O)C1=O (stereo partly drawn) [Example 5, (3R)-3-(2-(2-aminothiazol-4-yl)-2-(4-ethyl-2,3-dioxopiperazine-1-carboxamido)acetamido)-2-hydroxy-3,4-dihydro-2H-benzo[e][1,2]oxaborinine-8-carboxylic acid] | – | 8 to 16 µg/mL | 8 to 16 µg/mL | 1 to 2 µg/mL (≈ 1.89 to 3.77 µM) | < 0.125 µg/mL | 1 to 2 µg/mL (≈ 1.89 to 3.77 µM) | – | –
CCN1CCN(C(=O)NC(C(=O)N[C@H]2Cc3cccc(C(=O)O)c3OB2O)c2cnc(O)cn2)C(=O)C1=O (stereo partly drawn) [Example 121, (3R)-3-(2-(4-ethyl-2,3-dioxopiperazine-1-carboxamido)-2-(5-hydroxypyrazin-2-yl)acetamido)-2-hydroxy-3,4-dihydro-2H-benzo[e][1,2]oxaborinine-8-carboxylic acid] | – | 32 to 64 µg/mL | 32 to 64 µg/mL | – | – | – | 30 to 500 µM | –
CCCN1CCN(C(=O)NC(C(=O)N[C@H]2Cc3cccc(C(=O)O)c3OB2O)c2ccc(O)c(O)c2Cl)C(=O)C1=O (stereo partly drawn) [Example 82, (3R)-3-(2-(2-chloro-3,4-dihydroxyphenyl)-2-(2,3-dioxo-4-propylpiperazine-1-carboxamido)acetamido)-2-hydroxy-3,4-dihydro-2H-benzo[e][1,2]oxaborinine-8-carboxylic acid] | < 30 µM | 32 to 64 µg/mL | 32 to 64 µg/mL | – | – | – | – | –
CCN1CCN(C(=O)NC(C(=O)N[C@H]2Cc3cc(F)cc(C(=O)O)c3OB2O)c2csc(N)n2)C(=O)C1=O (stereo partly drawn) [Example 16, (3R)-3-(2-(2-aminothiazol-4-yl)-2-(4-ethyl-2,3-dioxopiperazine-1-carboxamido)acetamido)-6-fluoro-2-hydroxy-3,4-dihydro-2H-benzo[e][1,2]oxaborinine-8-carboxylic acid] | – | 32 to 64 µg/mL | 32 to 64 µg/mL | – | – | – | 30 to 500 µM | –
CCN1CCN(C(=O)NC(C(=O)N[C@H]2Cc3cccc(C(=O)O)c3OB2O)c2ccc(O)cc2F)C(=O)C1=O (stereo partly drawn) [Example 87, (3R)-3-(2-(4-ethyl-2,3-dioxopiperazine-1-carboxamido)-2-(2-fluoro-4-hydroxyphenyl)acetamido)-2-hydroxy-3,4-dihydro-2H-benzo[e][1,2]oxaborinine-8-carboxylic acid] | < 30 µM | – | – | 1 to 2 µg/mL (≈ 1.84 to 3.69 µM) | < 0.125 µg/mL | 4 to 8 µg/mL (≈ 7.38 to 14.8 µM) | – | –
CCN1CCN(C(=O)NC(C(=O)N[C@H]2Cc3cccc(C(=O)O)c3OB2O)c2cccs2)C(=O)C1=O (stereo partly drawn) [Example 115, (3R)-3-(2-(4-ethyl-2,3-dioxopiperazine-1-carboxamido)-2-(thiophen-2-yl)acetamido)-2-hydroxy-3,4-dihydro-2H-benzo[e][1,2]oxaborinine-8-carboxylic acid] | < 30 µM | 32 to 64 µg/mL | 32 to 64 µg/mL | – | – | – | – | –
O=C(O)c1cccc2c1OB(O)[C@@H](NC(=O)C(NC(=O)N1CCN(CCF)C(=O)C1=O)c1ccc(O)c(O)c1Cl)C2 (stereo partly drawn) [Example 71, (3R)-3-(2-(2-chloro-3,4-dihydroxyphenyl)-2-(4-(2-fluoroethyl)-2,3-dioxopiperazine-1-carboxamido)acetamido)-2-hydroxy-3,4-dihydro-2H-benzo[e][1,2]oxaborinine-8-carboxylic acid] | < 30 µM | 8 to 16 µg/mL | 2 to 4 µg/mL | – | – | – | – | –
CCN1CCN(C(=O)NC(C(=O)N[C@H]2Cc3cccc(C(=O)O)c3OB2O)c2cc(O)c(O)cc2F)C(=O)C1=O (stereo partly drawn) [Example 90, (3R)-3-(2-(4-ethyl-2,3-dioxopiperazine-1-carboxamido)-2-(2-fluoro-4,5-dihydroxyphenyl)acetamido)-2-hydroxy-3,4-dihydro-2H-benzo[e][1,2]oxaborinine-8-carboxylic acid] | < 30 µM | 8 to 16 µg/mL | 8 to 16 µg/mL | – | – | – | – | –
CCN1CCN(C(=O)NC(C(=O)N[C@H]2Cc3cccc(C(=O)O)c3OB2O)c2cccc(O)n2)C(=O)C1=O (stereo partly drawn) [Example 117, (3R)-3-(2-(4-ethyl-2,3-dioxopiperazine-1-carboxamido)-2-(6-hydroxypyridin-2-yl)acetamido)-2-hydroxy-3,4-dihydro-2H-benzo[e][1,2]oxaborinine-8-carboxylic acid] | – | 32 to 64 µg/mL | > 128 µg/mL | – | – | – | 30 to 500 µM | –
CCN1CCN(C(=O)NC(C(=O)N[C@H]2Cc3cccc(C(=O)O)c3OB2O)c2cnc(N)s2)C(=O)C1=O (stereo partly drawn) [Example 51, (3R)-3-(2-(2-aminothiazol-5-yl)-2-(4-ethyl-2,3-dioxopiperazine-1-carboxamido)acetamido)-2-hydroxy-3,4-dihydro-2H-benzo[e][1,2]oxaborinine-8-carboxylic acid] | – | 8 to 16 µg/mL | 32 to 64 µg/mL | – | – | – | 30 to 500 µM | –
